In patent EP0504807B1, “Use of bis-(p-hydroxyphenylthio)methane derivatives to inhibit progressive development of insulin-dependent diabetes mellitus” (MERRELL PHARMACEUTICALS INC., priority 1991, dated 1992):

Assays:
Female NOD mice [1] = test: Prevention of the progressive development of IDDM in the NOD mouse (incidence of diabetes by urine glucose and plasma glucose); format: in vivo
Text: The non-obese diabetic (NOD) mouse has a genetic predisposition to developing IDDM, particularly among the females. Diabetes begins to appear at 12-14 weeks of age and by 30-36 weeks of age about 75-85% of female NOD's will have developed IDDM. As such, the NOD mouse provides a standard experimental model for IDDM in man which is well known and appreciated by those skilled in the art [see Lampeter, et al: Diabetologia 32, 703 (1989)]. The effect of experimental agents on the NOD mouse can thus be studied to determine whether these agents are active in inhibiting the development of diabetes.
Female NOD mice were maintained on standard laboratory rodent feed containing either 0% (Control Group) or 1% bis(3,5-di-tertiary-butyl-4-hydroxyphenylthio)methane (Treated Group) as an admixture. The mice were started on these diets at 4 weeks of age and continued until they were 24 weeks old. Each mouse was tested for diabetes at 8, 12, 14, 16, 18, 20, 22 and 24 weeks of age. Diabetic mice were detected by a positive urine glucose measurement and were confirmed by a plasma glucose level greater than 300 mg/dL. Urine glucose was determined using Diastix™ reagent strips for urinalysis (Miles Inc., Diagnostics Division, Elkhart, IN) and plasma glucose using Glucose (GDH Endpoint) Reagent™ (Seradyn, Inc., Indianapolis, IN).
Mice were counted as diabetic if a positive urine glucose and plasma glucose greater than 300 mg/dL were determined on 3 consecutive measurements. If mice were determined to be diabetic for 1 or 2 consecutive measurements and then died with physical indications of IDDM such as severe weight loss, these mice were also counted as diabetic.
At 24 weeks of age, 30 of 61 mice in the Control Group (49%) had become diabetic compared to 2 of 51 mice in the Treated Group (4%).
The treated, nondiabetic mice (N=38) not sacrificed at 24 weeks of age were switched to control diet and monitored, along with the 21 remaining controls, for 24 more weeks. During this period, 13 of 21 (62%) controls and 13 of 38 (34%) previously treated mice developed diabetes (p=0.04). Combining the two 24 week study periods, the percentage of mice that developed diabetes among the controls was 81% (51% of the controls were nondiabetic after 24 weeks of study and 38% of these were still nondiabetic after 24 more weeks for an overall total of 19% nondiabetic control animals). Among the group treated for 24 weeks the percentage of mice that developed diabetes after 48 weeks of study was 37% (96% were nondiabetic after 24 weeks and 66% of these were still nondiabetic 24 weeks after stopping treatment).

Female NOD mice [2] = test: Pancreatic histopathology of NOD mice at 24 weeks of age (hematoxylin and eosin, immunoperoxidase for insulin); format: in vivo, NOD mouse; details: 1% in feed
Text: At 24 weeks of age, randomly selected control (N=10) and treated (N=10) nondiabetic mice and all surviving diabetic control (N=15) and treated (N=1) mice were sacrificed. Pancreata were collected and stored in formalin, processed, embedded, and sectioned by standard histological methods. Sections stained with hemotoxylin and eosin or by immunoperoxidase for insulin (as a marker for the presence of β-cells) were examined light microscopically. […]

[3] = Clinical Status Diabetic, 1 mouse
[4] = Clinical Status Nondiabetic, 10 mice

Compound: CC(C)(C)c1cc(SCSc2cc(C(C)(C)C)c(O)c(C(C)(C)C)c2)cc(C(C)(C)C)c1O [Bis(3,5-di-tertiary-butyl-4-hydroxyphenylthio)methane]
- percentage of mice that developed diabetes (Female NOD mice [1]; after 48 weeks of study, group treated for 24 weeks, two 24 week periods combined, controls 81%): 37%
- treated mice nondiabetic (Female NOD mice [1]; at 24 weeks of age / after 24 weeks of study, 1% in feed, controls 51%): 96%
- mice that had become diabetic (Female NOD mice [1]; at 24 weeks of age, 1% in feed as an admixture from 4 to 24 weeks of age, Control Group 30 of 61): 2 of 51
- mice that had become diabetic (percentage) (Female NOD mice [1]; at 24 weeks of age, 1% in feed from 4 to 24 weeks of age, Control Group 49%): 4%
- still nondiabetic 24 weeks after stopping treatment (Female NOD mice [1]; of the mice nondiabetic after 24 weeks of treatment, controls 38%): 66%
- previously treated mice that developed diabetes (Female NOD mice [1]; treated nondiabetic mice switched to control diet at 24 weeks of age, monitored 24 more weeks, controls 13 of 21, p=0.04): 13 of 38
- previously treated mice that developed diabetes (percentage) (Female NOD mice [1]; treated nondiabetic mice switched to control diet at 24 weeks of age, monitored 24 more weeks, controls 62%, p=0.04): 34%
- Atrophy (Female NOD mice [2]; [3]): 1 number of mice
- Insulitis (Female NOD mice [2]; [3]): 1 number of mice
- β-Cells Present (Female NOD mice [2]; [3]): 1 number of mice
- Atrophy (Female NOD mice [2]; [4]): 2 number of mice
- Insulitis (Female NOD mice [2]; [4]): 9 number of mice
